One data set deals with hERG channel (Homo sapiens, UniProt Q12809).
The test system of data set [1] is osteoblast differentiation. The conditions noted are these: compared with full PPARγ-agonists; cited from earlier work.
Data set [2] relates to C-reactive protein and pentraxins 2, 3. The data set is described as follows: Plasma biomarkers, cytokine and adipokine proteome arrays. Type of data set: in vivo, C57BL/6 N mice. The conditions noted are these: pooled plasma, oral treatment, htt94Q mice. On the procedure:
Plasma samples from wild-type and mutant huntingtin-expressing C57BL/6 N mice were pooled (n = 6 animals per group) and analyzed for cytokine and adipokine expression. The Proteome Profiler Mouse XL Cytokine Array and the Proteome Profiler Mouse Adipokine Array (R&D Systems) were used according to the manufacturer’s protocols to obtain protein expression profiles using 100 μl plasma samples. Spot density was determined using Quick Spots image analysis software (R&D Systems).
Supplementary file 40035_2019_148_MOESM5_ESM.pdf: Additional file 5: Effect of oral VCE-003.2 on plasmatic biomarkers. Plasma samples from the indicated groups of animals (n = 6) were pooled and subjected to mouse cytokine array (ARY028; R&D Systems) and mouse adipokine array (ARY013; R&D Systems) analysis. The relative expression of the indicated biomarkers is shown. (PDF 338 kb)

For a further data set, the target named is T1, CYP2C8 (Homo sapiens, UniProt P10632).
T1 construct: from tissue; host or cells: human liver microsomes
The data set is described as follows: biochemical. Type of data set: in vitro ADME. The conditions noted are these: Substrate = Paclitaxel, human liver microsomes. On the procedure: (§1) Supplementary file 40035_2019_148_MOESM2_ESM.pdf: Additional file 2: Cytochrome P450 Inhibition (IC50 Determination). CYP1A Inhibition. VCE-003.2 (0.1, 0.25, 1, 2.5, 10, 25 μM in DMSO; final DMSO concentration = 0.3%) was incubated with human liver microsomes (0.25 mg/mL) and NADPH (1 mM) in the presence of the probe substrate ethoxyresorufin (0.5 μM) for 5 min at 37 °C. The selective CYP1A inhibitor, alpha-naphthoflavone, was screened alongside the test compounds as a positive control. CYP2B6 Inhibition. VCE-003.2 (0.1, 0.25, 1, 2.5, 10, 25 μM in DMSO; final DMSO concentration = 0.3%) was incubated with human liver microsomes (0.1 mg/mL) and NADPH (1 mM) in the presence of the probe substrate bupropion (110 μM) for 5 min at 37 °C. The selective CYP2B6 inhibitor, ticlopidine, was screened alongside the test compounds as a positive control. CYP2C8 Inhibition. VCE-003.2 (0.1, 0.25, 1, 2.5, 10, 25 μM in DMSO; final DMSO concentration = 0.3%) was incubated with human liver microsomes (0.25 mg/mL) and NADPH (1 mM) in the presence of the probe substrate paclitaxel (7.5 μM) for 30 min at 37 °C. The selective CYP2C8 inhibitor, montelukast, was screened alongside the test compounds as a positive control. CYP2C9 Inhibition. VCE-003.2 (0.1, 0.25, 1, 2.5, 10, 25 μM in DMSO; final DMSO concentration = 0.3%) was incubated with human liver microsomes (1 mg/mL) and NADPH (1 mM) in the presence of the probe substrate tolbutamide (120 μM) for 60 min at 37 °C. The selective CYP2C9 inhibitor, sulphaphenazole, was screened alongside the test compounds as a positive control. CYP2C19 Inhibition. VCE-003.2 (0.1, 0.25, 1, 2.5, 10, 25 μM in DMSO; final DMSO concentration = 0.3%) was incubated with human liver microsomes (0.5 mg/mL) and NADPH (1 mM) in the presence of the probe substrate mephenytoin (25 μM) for 60 min at 37 °C. The selective CYP2C19 inhibitor, tranylcypromine, was screened alongside the test compounds as a positive control. CYP2D6 Inhibition. VCE-003.2 (0.1, 0.25, 1, 2.5, 10, 25 μM in DMSO; final DMSO concentration = 0.3%) was incubated with human liver microsomes (0.5 mg/mL) and NADPH (1 mM) in the presence of the probe substrate dextromethorphan (5 μM) for 5 min at 37 °C. […] CYP3A4 Inhibition. VCE-003.2 (0.1, 0.25, 1, 2.5, 10, 25 μM in DMSO; final DMSO concentration = 0.3%) was incubated with human liver microsomes (0.1 mg/mL) and NADPH (1 mM) in the presence of the probe substrate midazolam (2.5 μM) for 5 min at 37 °C. The selective CYP3A4 inhibitor, ketoconazole, was screened alongside the test compounds as a positive control. CYP3A4 Inhibition. VCE-003.2 (0.1, 0.25, 1, 2.5, 10, 25 μM in DMSO; final DMSO concentration = 0.3%) was incubated with human liver microsomes (0.5 mg/mL) and NADPH (1 mM) in the presence of the probe substrate testosterone (50 μM) for 5 min at 37 °C. The selective CYP3A4 inhibitor, ketoconazole, was screened alongside the test compounds as a positive control. For the CYP1A incubations, the reactions were terminated by methanol, and the formation of the metabolite, resorufin, was monitored by fluorescence (excitation wavelength = 535 nm, emission wavelength = 595 nm). For the CYP2B6, CYP2C9, CYP2C19, CYP2D6, and CYP3A4 incubations, the reactions were terminated by methanol. The samples were centrifuged, and the supernatants combined for the simultaneous analysis of 4-hydroxytolbutamide, 4-hydroxymephenytoin, dextrorphan, and 1-hydroxymidazolam by LC-MS/MS. Hydroxybupropion, 6α-hydroxypaclitaxel and 6ß-hydroxytestosterone were analyzed separately by LC-MS/MS. A decrease in the formation of the metabolites compared to vehicle control was used to calculate IC50 values. (PDF 323 kb)
For orientation: Liver microsomes are a subcellular fraction often used to study metabolism.

In another data set the target is T2, CYP2C9 (Homo sapiens, UniProt P11712).
T2 construct: from tissue; host or cells: human liver microsomes
The data set can be described thus: biochemical. Type of data set: in vitro ADME. To be noted: Substrate = Tolbutamide, human liver microsomes. On the procedure:
as §1

For a further data set, the target named is T3, CYP3A4 (Homo sapiens, UniProt P08684).
T3 construct: from tissue; host or cells: human liver microsomes
The data set is described as follows: biochemical. The format is in vitro ADME. To be noted: human liver microsomes. On the procedure: as §1

The target of a further data set is T4, CYP2B6 (Homo sapiens, UniProt P20813).
T4 construct: from tissue; host or cells: human liver microsomes
The data set is described as follows: biochemical. Type of data set: in vitro ADME. The conditions noted are these: Substrate = Bupropion, human liver microsomes. On the procedure: as §1

In a further data set the target is T5, CYP2D6 (Homo sapiens, UniProt P10635).
T5 construct: from tissue; host or cells: human liver microsomes
The data set can be described thus: biochemical. The format is in vitro ADME. To be noted: Substrate = Dextromethorphan, human liver microsomes. On the procedure:
as §1

The target in the next data set is T6, CYP2C19 (Homo sapiens, UniProt P33261).
T6 construct: from tissue; host or cells: human liver microsomes
The data set is described as follows: biochemical. The format is in vitro ADME. The conditions noted are these: Substrate = Mephenytoin, human liver microsomes. On the procedure:
as §1

Another data set concerns the target T7, CYP1A (Homo sapiens, UniProt P05177).
T7 construct: from tissue; host or cells: human liver microsomes
Type of data set: in vitro ADME. To be noted: Substrate = Etoxyresorufin, human liver microsomes. On the procedure:
(§2) Supplementary file 40035_2019_148_MOESM2_ESM.pdf: Additional file 2: Cytochrome P450 Inhibition (IC50 Determination). CYP1A Inhibition. VCE-003.2 (0.1, 0.25, 1, 2.5, 10, 25 μM in DMSO; final DMSO concentration = 0.3%) was incubated with human liver microsomes (0.25 mg/mL) and NADPH (1 mM) in the presence of the probe substrate ethoxyresorufin (0.5 μM) for 5 min at 37 °C. The selective CYP1A inhibitor, alpha-naphthoflavone, was screened alongside the test compounds as a positive control. CYP2B6 Inhibition. VCE-003.2 (0.1, 0.25, 1, 2.5, 10, 25 μM in DMSO; final DMSO concentration = 0.3%) was incubated with human liver microsomes (0.1 mg/mL) and NADPH (1 mM) in the presence of the probe substrate bupropion (110 μM) for 5 min at 37 °C. The selective CYP2B6 inhibitor, ticlopidine, was screened alongside the test compounds as a positive control. CYP2C8 Inhibition. […] For the CYP1A incubations, the reactions were terminated by methanol, and the formation of the metabolite, resorufin, was monitored by fluorescence (excitation wavelength = 535 nm, emission wavelength = 595 nm). […] Hydroxybupropion, 6α-hydroxypaclitaxel and 6ß-hydroxytestosterone were analyzed separately by LC-MS/MS. […]

The test system of data set [3] is relevant cytochrome P450 isoforms. Type of data set: in vitro ADME. To be noted: human liver microsomes, up to 25 μM. On the procedure: as §2

A value given as a limit tells only on which side of the number the result lay.

T3 sequence (P08684 whole entry): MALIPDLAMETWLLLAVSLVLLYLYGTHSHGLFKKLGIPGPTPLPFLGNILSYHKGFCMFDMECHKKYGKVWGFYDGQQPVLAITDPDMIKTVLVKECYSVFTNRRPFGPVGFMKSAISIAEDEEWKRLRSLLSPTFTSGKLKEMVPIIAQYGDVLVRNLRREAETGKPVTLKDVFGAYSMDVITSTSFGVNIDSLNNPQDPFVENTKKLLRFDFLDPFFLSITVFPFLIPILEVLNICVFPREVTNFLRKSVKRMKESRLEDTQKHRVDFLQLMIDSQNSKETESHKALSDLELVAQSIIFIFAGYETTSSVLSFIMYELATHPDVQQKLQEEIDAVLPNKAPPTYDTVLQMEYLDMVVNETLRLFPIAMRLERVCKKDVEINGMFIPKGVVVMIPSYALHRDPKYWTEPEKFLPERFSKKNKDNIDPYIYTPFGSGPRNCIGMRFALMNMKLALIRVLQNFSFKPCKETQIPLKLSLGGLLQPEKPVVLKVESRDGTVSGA
T7 sequence (P05177 2-516 limits assumed): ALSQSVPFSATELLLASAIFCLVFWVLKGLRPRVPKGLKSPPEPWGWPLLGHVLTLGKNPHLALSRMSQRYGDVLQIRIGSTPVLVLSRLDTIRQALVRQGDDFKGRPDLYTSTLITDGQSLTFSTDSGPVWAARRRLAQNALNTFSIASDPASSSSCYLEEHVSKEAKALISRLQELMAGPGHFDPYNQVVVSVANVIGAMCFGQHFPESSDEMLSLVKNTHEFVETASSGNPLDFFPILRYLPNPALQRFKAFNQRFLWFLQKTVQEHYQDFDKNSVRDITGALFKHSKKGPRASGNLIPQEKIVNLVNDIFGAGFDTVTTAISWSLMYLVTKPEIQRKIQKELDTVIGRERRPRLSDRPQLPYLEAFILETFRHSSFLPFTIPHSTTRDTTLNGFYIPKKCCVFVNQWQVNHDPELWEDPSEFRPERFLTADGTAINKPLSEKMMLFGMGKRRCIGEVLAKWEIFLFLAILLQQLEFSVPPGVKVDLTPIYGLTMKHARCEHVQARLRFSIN
hERG channel, sequence (Q12809 whole entry): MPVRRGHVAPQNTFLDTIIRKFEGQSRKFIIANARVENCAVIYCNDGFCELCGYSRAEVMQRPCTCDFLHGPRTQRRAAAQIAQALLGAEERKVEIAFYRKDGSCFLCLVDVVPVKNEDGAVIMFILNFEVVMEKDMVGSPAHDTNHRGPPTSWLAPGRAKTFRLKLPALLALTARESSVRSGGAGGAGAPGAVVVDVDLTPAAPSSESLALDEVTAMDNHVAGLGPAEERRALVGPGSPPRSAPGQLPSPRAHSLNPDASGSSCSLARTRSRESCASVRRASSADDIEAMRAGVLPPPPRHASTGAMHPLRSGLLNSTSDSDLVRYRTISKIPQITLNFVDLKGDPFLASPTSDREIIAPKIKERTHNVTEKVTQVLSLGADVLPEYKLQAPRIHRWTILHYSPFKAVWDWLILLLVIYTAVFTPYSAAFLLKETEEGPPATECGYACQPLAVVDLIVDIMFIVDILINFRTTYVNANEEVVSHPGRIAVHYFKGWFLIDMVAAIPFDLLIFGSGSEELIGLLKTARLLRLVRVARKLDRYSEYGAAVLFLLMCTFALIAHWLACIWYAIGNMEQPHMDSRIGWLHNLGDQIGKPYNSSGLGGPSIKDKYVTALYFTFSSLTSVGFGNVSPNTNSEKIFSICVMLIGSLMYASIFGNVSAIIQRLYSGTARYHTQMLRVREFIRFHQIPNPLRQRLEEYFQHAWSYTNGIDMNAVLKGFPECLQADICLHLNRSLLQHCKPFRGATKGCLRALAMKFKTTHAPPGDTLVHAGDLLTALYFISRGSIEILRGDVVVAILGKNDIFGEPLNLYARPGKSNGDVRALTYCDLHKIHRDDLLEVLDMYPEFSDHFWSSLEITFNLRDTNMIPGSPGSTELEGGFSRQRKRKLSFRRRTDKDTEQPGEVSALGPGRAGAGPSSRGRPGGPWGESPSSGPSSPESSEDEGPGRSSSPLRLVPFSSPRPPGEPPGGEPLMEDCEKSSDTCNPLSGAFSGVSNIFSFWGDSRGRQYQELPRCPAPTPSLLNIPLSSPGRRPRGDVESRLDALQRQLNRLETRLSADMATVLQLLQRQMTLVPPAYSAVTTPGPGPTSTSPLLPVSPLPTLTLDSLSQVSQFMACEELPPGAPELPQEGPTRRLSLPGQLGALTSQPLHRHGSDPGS
T6 sequence (P33261 whole entry): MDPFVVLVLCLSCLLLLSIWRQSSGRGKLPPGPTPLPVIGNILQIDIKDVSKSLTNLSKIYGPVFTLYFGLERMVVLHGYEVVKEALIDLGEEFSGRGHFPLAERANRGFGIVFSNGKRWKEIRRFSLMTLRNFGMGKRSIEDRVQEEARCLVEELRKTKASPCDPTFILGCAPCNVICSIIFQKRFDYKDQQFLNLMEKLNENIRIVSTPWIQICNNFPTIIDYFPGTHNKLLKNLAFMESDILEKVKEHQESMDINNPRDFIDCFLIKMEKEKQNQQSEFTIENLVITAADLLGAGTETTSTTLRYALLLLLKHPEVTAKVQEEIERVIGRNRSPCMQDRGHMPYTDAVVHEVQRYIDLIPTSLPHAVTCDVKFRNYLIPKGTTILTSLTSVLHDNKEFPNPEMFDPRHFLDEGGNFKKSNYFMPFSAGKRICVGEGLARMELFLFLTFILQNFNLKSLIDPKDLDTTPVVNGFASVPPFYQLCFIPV
T4 sequence (P20813 whole entry): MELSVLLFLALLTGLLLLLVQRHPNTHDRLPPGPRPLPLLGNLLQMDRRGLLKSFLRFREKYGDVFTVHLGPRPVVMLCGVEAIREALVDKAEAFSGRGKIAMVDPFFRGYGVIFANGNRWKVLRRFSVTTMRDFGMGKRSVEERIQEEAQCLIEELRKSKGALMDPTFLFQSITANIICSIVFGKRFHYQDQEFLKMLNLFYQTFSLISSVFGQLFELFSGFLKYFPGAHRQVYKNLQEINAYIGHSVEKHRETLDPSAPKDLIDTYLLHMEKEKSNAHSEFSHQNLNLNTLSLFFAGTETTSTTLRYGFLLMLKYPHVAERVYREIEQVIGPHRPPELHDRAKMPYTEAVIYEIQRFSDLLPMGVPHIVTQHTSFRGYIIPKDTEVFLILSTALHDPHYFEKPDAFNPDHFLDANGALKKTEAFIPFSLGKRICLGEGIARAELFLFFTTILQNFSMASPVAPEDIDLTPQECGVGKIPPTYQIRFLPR
T2 sequence (P11712 whole entry): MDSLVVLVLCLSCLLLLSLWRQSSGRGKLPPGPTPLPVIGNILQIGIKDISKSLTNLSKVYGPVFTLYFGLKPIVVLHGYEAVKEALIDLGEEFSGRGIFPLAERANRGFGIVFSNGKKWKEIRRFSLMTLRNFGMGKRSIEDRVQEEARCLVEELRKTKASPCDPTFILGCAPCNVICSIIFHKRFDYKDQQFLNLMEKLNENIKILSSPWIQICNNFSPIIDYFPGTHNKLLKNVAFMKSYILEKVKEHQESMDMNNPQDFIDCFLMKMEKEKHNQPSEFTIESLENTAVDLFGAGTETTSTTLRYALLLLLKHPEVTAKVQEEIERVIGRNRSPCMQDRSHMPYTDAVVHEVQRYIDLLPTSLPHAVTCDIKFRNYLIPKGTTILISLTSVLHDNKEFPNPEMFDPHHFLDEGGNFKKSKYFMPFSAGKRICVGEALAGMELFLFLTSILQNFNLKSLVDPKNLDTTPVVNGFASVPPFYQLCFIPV
T1 sequence (P10632 whole entry): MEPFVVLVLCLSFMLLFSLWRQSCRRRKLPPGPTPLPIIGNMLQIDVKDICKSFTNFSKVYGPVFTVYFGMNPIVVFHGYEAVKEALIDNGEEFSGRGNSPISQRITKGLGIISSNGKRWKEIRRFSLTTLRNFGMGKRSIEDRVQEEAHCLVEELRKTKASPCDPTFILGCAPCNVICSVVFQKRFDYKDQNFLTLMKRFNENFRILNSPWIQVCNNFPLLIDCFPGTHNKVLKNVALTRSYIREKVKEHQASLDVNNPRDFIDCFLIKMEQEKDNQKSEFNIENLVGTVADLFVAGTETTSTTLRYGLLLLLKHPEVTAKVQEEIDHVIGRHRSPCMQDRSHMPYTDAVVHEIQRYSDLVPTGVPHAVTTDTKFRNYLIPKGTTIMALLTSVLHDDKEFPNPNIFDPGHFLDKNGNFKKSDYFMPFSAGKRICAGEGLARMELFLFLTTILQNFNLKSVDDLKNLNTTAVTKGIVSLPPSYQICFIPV
T5 sequence (P10635 whole entry): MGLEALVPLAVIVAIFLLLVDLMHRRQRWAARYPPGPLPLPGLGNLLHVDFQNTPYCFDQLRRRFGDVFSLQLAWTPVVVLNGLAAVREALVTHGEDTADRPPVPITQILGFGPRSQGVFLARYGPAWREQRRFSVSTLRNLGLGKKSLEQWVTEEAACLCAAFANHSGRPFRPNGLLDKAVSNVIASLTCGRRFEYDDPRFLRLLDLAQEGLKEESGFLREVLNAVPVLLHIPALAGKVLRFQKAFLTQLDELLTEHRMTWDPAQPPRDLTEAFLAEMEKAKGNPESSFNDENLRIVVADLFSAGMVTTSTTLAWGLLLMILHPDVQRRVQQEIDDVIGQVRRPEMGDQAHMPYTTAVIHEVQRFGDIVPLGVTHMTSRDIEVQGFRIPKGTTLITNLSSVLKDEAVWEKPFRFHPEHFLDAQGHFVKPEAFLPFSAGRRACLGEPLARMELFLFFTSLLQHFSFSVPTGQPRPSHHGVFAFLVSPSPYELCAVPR

Regarding `CCCCCC1=C(NCC)C(=O)C(CC=C(C)CCC=C(C)C)=C(O)C1=O` [VCE-003.2, 2-(3,7-dimethyl-octa-2,6-dienyl)-6-ethylamino-3-hydroxy-5-pentyl-(1,4) benzoquinone], at hERG channel, the “hERG channel activity inhibition (in words)” value was “did not inhibit hERG channel activity”. Further, the “interference with osteoblast differentiation” value in [1] is reported as “does not interfere with osteoblast differentiation”. For the same compound, the “plasma neuroinflammation biomarkers increased by htt94Q (C-reactive protein, pentraxins 2, 3)” value in data set [2] is recorded as “reverted”. The IC50 (usually the concentration that gives 50% inhibition) on CYP2C8 is 13 ± 2.4 µM; at CYP2C9, 15.7 ± 1.96 µM; against CYP3A4 (Substrate = Midazolam), above 25 µM; against CYP3A4 (Substrate = Testosterone) it was above 25 µM; at CYP2B6, above 25 µM; against CYP2D6 it was above 25 µM. Also, the IC50 against CYP2C19 and at CYP1A was above 25 µM throughout. Moreover, in data set [3], the “inhibition of cytochrome P450 isoforms (in words)” value is “did not inhibit significantly”.

The values are drawn from PMC6407204, “Oral administration of the cannabigerol derivative VCE-003.2 promotes subventricular zone neurogenesis and protects against mutant huntingtin-induced neurodegeneration” (Translational Neurodegeneration, 2019).
